This data set relates to CCRIS mutagenicity, Ames/micronucleus/aberration tests. Put plainly: CCRIS mutagenicity studies.

Molecules are shown by their SMILES. Activity calls are given as the source filed them. No rule for the calls is given here.

As to `CCN(CC)CCNc1ccc(C)c2sc3ccccc3c(=O)c12`, the mutagenic call is, setting by setting: (Test System: AMES SALMONELLA TYPHIMURIUM, Strain/Indicator: TA98, Metabolic Activation: NONE, Method: STANDARD PLATE) “inactive; negative”; (Test System: AMES SALMONELLA TYPHIMURIUM, Strain/Indicator: TA98, Metabolic Activation: RAT, LIVER, S-9, AROCLOR 1254 OR PHENOBARBITOL, Method: STANDARD PLATE) “inactive; negative”; (Test System: AMES SALMONELLA TYPHIMURIUM, Strain/Indicator: TA100, Metabolic Activation: NONE, Method: STANDARD PLATE) “inactive; negative”; (Test System: AMES SALMONELLA TYPHIMURIUM, Strain/Indicator: TA100, Metabolic Activation: RAT, LIVER, S-9, AROCLOR 1254 OR PHENOBARBITOL, Method: STANDARD PLATE) “inactive; negative”; (Test System: AMES SALMONELLA TYPHIMURIUM, Strain/Indicator: TA1535, Metabolic Activation: NONE, Method: STANDARD PLATE) “inactive; negative”; (Test System: AMES SALMONELLA TYPHIMURIUM, Strain/Indicator: TA1535, Metabolic Activation: RAT, LIVER, S-9, AROCLOR 1254 OR PHENOBARBITOL, Method: STANDARD PLATE) “active; positive”. Further, the mutagenic call is “active; positive” (Test System: AMES SALMONELLA TYPHIMURIUM, Strain/Indicator: TA1537, Metabolic Activation: NONE, Method: STANDARD PLATE); “active; positive” (Test System: AMES SALMONELLA TYPHIMURIUM, Strain/Indicator: TA1537, Metabolic Activation: RAT, LIVER, S-9, AROCLOR 1254 OR PHENOBARBITOL, Method: STANDARD PLATE); “inactive; negative” (Test System: AMES SALMONELLA TYPHIMURIUM, Strain/Indicator: TA1538, Metabolic Activation: NONE, Method: STANDARD PLATE); “inactive; negative” (Test System: AMES SALMONELLA TYPHIMURIUM, Strain/Indicator: TA1538, Metabolic Activation: RAT, LIVER, S-9, AROCLOR 1254 OR PHENOBARBITOL, Method: STANDARD PLATE); “active; positive” (Test System: MOUSE LYMPHOMA, Strain/Indicator: L5178Y (TK+/TK-), Metabolic Activation: NONE, Method: SUSPENSION/PLATE).
For the molecule `Cc1ccc2c(C)c3ccc4c(c3nc2c1)C=C[C@H](O)[C@H]4O`, the mutagenic call (Test System: AMES SALMONELLA TYPHIMURIUM, Strain/Indicator: TA100, Metabolic Activation: RAT, LIVER, S-9, AROCLOR 1254, Method: STANDARD PLATE) is “active; positive”.

These data come from PubChem BioAssay AID1259407 (Chemical Carcinogenesis Research Information System (CCRIS), 2018).
